Test results reported in US6294564A, “Benzimidazoles and benzoxazoles” (Byk Gulden Lomberg Chemische Fabrik GmbH, priority 1998, dated 2001).

Test system: PDE4
Test: Inhibition of PDE4 Activity (activity test according to Bauer and Schwabe adapted to microtitre plates)
Type: biochemical
Conditions: Inhibition of the PDE4 Activity; inhibitory concentration as -log IC50 (mol/l)

| Compound | -log IC50 |
| --- | --- |
| COc1ccc(-c2nc3cc(C(=O)O)ccc3[nH]2)c2c1OC1(CCCC1)C2 [compound 1, 2-(2,3-Dihydro-7-methoxybenzofuran-2-spiro-1'-cyclopentan-4-yl)benzimidazole-5-carboxylic acid] | 7.87 |
| COc1ccc(-c2nc3cc(C(N)=O)ccc3[nH]2)c2c1OC1(CCCC1)C2 [compound 2, 2-(2,3-Dihydro-7-methoxybenzofuran-2-spiro-1'-cyclopentan-4-yl)benzimidazole-5-carboxamide] | 7.69 |
| COc1ccc(-c2nc3cc(C(=O)O)ccc3o2)c2c1OC1(CCCC1)C2 [compound 3, 2-(2,3-Dihydro-7-methoxybenzofuran-2-spiro-1'-cyclopentan-4-yl)benzoxazole-5-carboxylic acid] | 7.65 |
| COc1ccc(-c2nc3cc(C(=O)O)ccc3o2)c2c1OC1(CCOCC1)C2 [compound 6, 2-(2,3-Dihydro-7-methoxybenzofuran-2-spiro-4'-tetrahydropyran-4-yl)benzoxazole-5-carboxylic acid] | 7.05 |
| COc1ccc(-c2nc3cc(C(N)=O)ccc3o2)c2c1OC1(CCOCC1)C2 [compound 7, 2-(2,3-Dihydro-7-methoxybenzofuran-2-spiro-4'-tetrahydropyran-4-yl)benzoxazole-5-carboxamide] | 6.80 |
| COc1ccc(-c2nc3ccc(C(=O)O)cc3o2)c2c1OC1(CCCC1)C2 [compound 8, 2-(2,3-Dihydro-7-methoxybenzofuran-2-spiro-1'-cyclopentan-4-yl)benzoxazole-6-carboxylic acid] | 8.21 |
| COc1ccc(-c2nc3ccc(C(=O)OCCN4CCOCC4)cc3o2)c2c1OC1(CCCC1)C2 [compound 9, 2-morpholin-4-ylethyl 2-(2,3-dihydro-7-methoxybenzofuran-2-spiro-1'-cyclopentan4-yl)-benzoxazole-6-carboxylate] | 6.90 |
| COc1ccc(-c2nc3ccc(C(=O)O)cc3o2)c2c1OC1(CCOCC1)C2 [compound 11, 2-(2,3-Dihydro-7-methoxybenzofuran-2-spiro-4'-tetrahydropyran-4-yl) benzoxazole-6-carboxylic acid] | 6.85 |
| COc1ccc(-c2nc3ccc(C(N)=O)cc3o2)c2c1OC1(CCOCC1)C2 [compound 12, 2-(2,3-Dihydro-7-methoxybenzofuran-2-spiro-4'-tetrahydropyran-4-yl)benzoxazole-6-carboxamide] | 6.42 |
